According to patent US20080089851A1, “Brown Algae Cell Lyophilisate, Method For The Obtention Thereof” (BIOTECHMARINE, priority 2005, published 2008):
Values joined by “and” are separate entries in the source; they are usually repeats but may differ in a detail not shown here. Identical values can stand only once.

How the values were obtained:
[1] = test system: microsomes of human keratinocytes; assay: Transport of proteins (albumin), direct treatment of isolated microsomes; type: biochemical; settings: for Capture of albumin-FITC: ND 6 mg/ml
Method: 7.1—Assessment of the Rate of Transport of Macromolecules (Glucids, Lipids and Proteins) in a System of Isolated Microsomes. Direct Effect of the BB Product on Isolated Microsomes: The microsomes of human keratinocytes form a membrane fraction obtained by high-speed differential centrifugation of a cell homogenate. This preparation of microsomes requires the addition of exogenous cofactors such as NADPH. 7.1.3—Transport of Proteins (Albumin) The assay was performed in triplicate after the direct treatment of microsomes. • Charge 1: negative control not receiving any product • Charge 2: positive control (Nocodazole, 6 mg/ml) • Charge 3-5: treated receiving the investigated product (3 concentrations) • Charge 6-8: treated with Nocodazole 6 mg/ml, and with the investigated product (3 concentrations) The obtained microsomes from human keratinocytes in culture were rinsed 3 times with a buffer, afterwards pre-incubated in 1 ml of the same buffer for 30 minutes at 3° C. This solution was subsequently discarded and the microsomes were placed into the HBSS buffer containing albumin-FITC with stirring in a water bath at 37° C. The capture of albumin is stopped by addition of a Ringer's solution containing 122.5 mM NaCl; 5.4 mM KCl; 1.2 mM CaCl2; 0.8 mM MgCl2; 0.8 Na2HPO4; 0.2 NaHPO4; 5.5 mM glucose; 10 mM HEPES, pH 7,4. Afterwards, the microsomes were treated with Triton X-100 at (0.1% v/v in 3-(N-morpholino) propanesulfonic acid 20 mM, pH 7.4). The fluorescence was quantified with a spectrophotometer (excitation 480 nm: emission 520 nm). The kinetics of incubation was performed between 30 and 120 seconds. The treatment of microsomes with the BB product alone or in the presence of Nocodazole (ND) were carried out at the same time as the introduction of albumin-FITC into the incubation medium. The assay of proteins was performed following the BRADFORD method. The increase in absorbance at 595 nm is proportional to the concentration of proteins measured with a spectrophotometer.

[2] = test system: normal human keratinocytes; assay: Transport of proteins (albumin), normal human keratinocytes; type: cell-based; settings: for Capture of albumin-FITC: S.D. 6 mg/ml
Method: The obtained microsomes from human keratinocytes in culture were rinsed 3 times with a buffer, afterwards pre-incubated in 1 ml of the same buffer for 30 minutes at 3° C. This solution was subsequently discarded and the microsomes were placed into the HBSS buffer containing albumin-FITC with stirring in a water bath at 37° C. The capture of albumin is stopped by addition of a Ringer's solution containing 122.5 mM NaCl; 5.4 mM KCl; 1.2 mM CaCl2; 0.8 mM MgCl2; 0.8 Na2HPO4; 0.2 NaHPO4; 5.5 mM glucose; 10 mM HEPES, pH 7,4. Afterwards, the microsomes were treated with Triton X-100 at (0.1% v/v in 3-(N-morpholino) propanesulfonic acid 20 mM, pH 7.4). The fluorescence was quantified with a spectrophotometer (excitation 480 nm: emission 520 nm). The kinetics of incubation was performed between 30 and 120 seconds. 7.2—Assessment of the Rate of Transport of Macromolecules at the Level of Normal Human Keratinocytes The applied method was that of explants allowing to obtain, from a biopsy of human skin, keratinocytes in primary cultures. The assays were carried out on keratinocytes between the 2nd and the 4th passage in order to ensure a reproductibility between the different experiences. The keratinocytes were divided into multiwell plates (6 wells) at a rate of 10^5 cells per well in 1 ml of culture medium […] supplemented with insulin and hydrocortisone. The cells were incubated in the presence and absence of the investigated product. 7.2.3—Transport of Proteins (Albumin) The assay was carried out in triplicate on normal human keratinocytes in culture. • Charge 1: negative control not receiving any product. • Charge 2: positive control (Nocodazole, 6 mg/ml) • Charge 3-5: treated receiving the investigated product (3 concentrations) • Charge 6-8: treated with Nocodazole, 6 mg/ml, and with the investigated product (3 concentrations) The treatment of keratinocytes with the BB product in the presence and absence of Nocodazole, 6 mg/ml, was carried out for 120 minutes at 37° C. The membrane microsomes were separated by differential centrifugation. The same protocol of capture of albumin-FITC was used for the determination of the rate of transport of albumin (cf. 3.1.4.2)

[3] = test system: human keratinocytes in senescence; assay: Transport of proteins (albumin), human keratinocytes in senescence; type: cell-based; settings: for Capture of albumin-FITC: ND 6 mg/ml
Method: The obtained microsomes from human keratinocytes in culture were rinsed 3 times with a buffer, afterwards pre-incubated in 1 ml of the same buffer for 30 minutes at 3° C. This solution was subsequently discarded and the microsomes were placed into the HBSS buffer containing albumin-FITC with stirring in a water bath at 37° C. The capture of albumin is stopped by addition of a Ringer's solution containing 122.5 mM NaCl; 5.4 mM KCl; 1.2 mM CaCl2; 0.8 mM MgCl2; 0.8 Na2HPO4; 0.2 NaHPO4; 5.5 mM glucose; 10 mM HEPES, pH 7,4. Afterwards, the microsomes were treated with Triton X-100 at (0.1% v/v in 3-(N-morpholino) propanesulfonic acid 20 mM, pH 7.4). The fluorescence was quantified with a spectrophotometer (excitation 480 nm: emission 520 nm). The kinetics of incubation was performed between 30 and 120 seconds.
7.3—Assessment of the Rate of Transport of Macromolecules at the Level of Human Keratinocytes in Senescence
The senescence is a phenomenon of cellular aging, where the cells are arrested in the phase G1 of the cell cycle and never enter the synthesis phase leading to the cell division. Senescent cells are characterized by their slow metabolism at synthesis and transport of macromolecules levels.
The cells in culture deprived of serum stop their growth, but continue to progress through the cell cycle until they reach the phase G1.
The applied method allowed to obtain, from a human skin biopsy, primary cultures of keratinocytes. The assays were performed on keratinocytes, between the 8th and the 10th passage, in order to ensure the presence of senescent cells at control cells level.
The keratinocytes were seeded in multiwell plates (6 wells) at a rate of 10^5 cells per well in 3 ml of culture medium […] supplemented with EGF, hydrocortisone, insulin and gentamicyn. Afterwards they are maintained for 5 days in incubator under CO2.
7.3.3—Transport of Proteins (Albumin)
The assay was carried out in triplicate on human keratinocytes in senescence. • Charge 1: negative control not receiving any product. • Charge 2: positive control (Nocodazole, 6 mg/ml) • Charge 3-5: treated receiving the investigated product (3 concentrations) • Charge 6-8: treated with Nocodazole, 6 mg/ml, and the investigated product (3 concentrations)
The treatment of keratinocytes with the BB product in the presence and absence of Nocodazole, 6 mg/ml, was carried out for 120 minutes at 37° C. The membrane microsomes were separated by differential centrifugation.
The same protocol of capture of albumin-FITC was applied to determine the rate of transport of albumin (cf. 6.1.3)

[4] = test system: reconstructed melanized human epidermis; assay: Pigmentation test: biochemical quantification of the melanic content; type: cell-based; settings: α-MSH 100 nM
Method: 1. —Materials and Methods
The BB product is diluted in ethanol then incorporated into a cosmetic formulation.
a—BB product incorporated in formulation at 0.05%
b—BB product incorporated in formulation at 0.15%
c—BB product incorporated in formulation at 0.30%
They are conserved at 4° C. until use thereof.
2. —Biochemical Assessment
At the end of the incubation, the melanin contained in cell lysates was quantified by a spectrophotometrical method. A range of melanin was carried out in parallel with the assay.
The results are expressed in […] of melanin per ml of lysate of the cell carpets (average +/−standard deviation SD).
The statistical significance of the observed differences between the conditions <<treated >> and <<controls >> was assessed by variance analysis to a factor (One Way ANOVA) followed by a test of Bonferroni t-test (*:p<0.05;**:p<0.01).

[5] = test system: reconstructed melanized human epidermal skins; assay: Pigmentation test: melanic content by image analysis (Fontana Masson); type: cell-based; settings: WITHOUT UV; α-MSH 100 nM
Method: 3. —Histological Assessment
The epidermis skins ware fixed in formaldehyde from the end of incubation, then embedded in paraffin blocs. Subsequently sections of 4 μm thickness were cut.
Said slides by condition were carried out with a magnification ×400. The visualisable melanin on these slides was quantified by image analysis using the Image J program.
The results are expressed in form of the surface occupied by the melanin (number of pixels the grey scale of which is between 0 and 100; 0=black/255=white) in each slide (average +/−standard deviation, SD).
The statistical significance of the noted differences between the treated conditions and controls was assessed by a Student's test (*: p<0.05, **: p<0.01; ***: p<0.001).

COC(=O)Nc1nc2ccc(C(=O)c3cccs3)cc2[nH]1 [ND, Nocodazole]
Capture of albumin-FITC ([1]; 30 s): 0.11 μg/mg proteins
Capture of albumin-FITC ([1]; 60 s): 0.29 μg/mg proteins
Capture of albumin-FITC ([1]; 90 s): 0.34 μg/mg proteins
Capture of albumin-FITC ([1]; 120 s): 0.43 μg/mg proteins
rate of transport of proteins (in words) ([1]; Nocodazole 6 mg/ml alone): strongly inhibits
rate of transport of proteins (in words) ([2]; Nocodazole 6 mg/ml alone): inhibits
Capture of albumin-FITC ([2]; 30 s): 0.09 μg/mg proteins
Capture of albumin-FITC ([2]; 60 s): 0.22 μg/mg proteins
Capture of albumin-FITC ([2]; 90 s): 0.26 μg/mg proteins
Capture of albumin-FITC ([2]; 120 s): 0.37 μg/mg proteins
Capture of albumin-FITC ([3]; 30 s): 0.06 μg/mg of proteins
Capture of albumin-FITC ([3]; 60 s): 0.11 μg/mg of proteins
Capture of albumin-FITC ([3]; 90 s): 0.19 μg/mg of proteins
Capture of albumin-FITC ([3]; 120 s): 0.3 μg/mg of proteins
rate of transport of proteins (in words) ([3]; Nocodazole 6 mg/ml alone): inhibits

α-MSH
Melanin, % medium alone ([4]; +UVA): 141%
Melanin, Average ([4]; +UVA): 96.1 µg/mL
Melanin, single values ([4]; +UVA): 95.6 µg/mL and 84.7 µg/mL and 107.9 µg/mL
Melanin, % medium alone ([4]; +UVB): 128%
Melanin, Average ([4]; +UVB): 106.5 µg/mL
Melanin, single values ([4]; +UVB): 99.5 µg/mL and 115.5 µg/mL and 104.6 µg/mL
Melanin, % medium alone ([4]; WITHOUT UV): 141%
Melanin, Average ([4]; WITHOUT UV): 80.7 µg/mL
Melanin, single values ([4]; WITHOUT UV): 70.3 µg/mL and 86.9 µg/mL and 85 µg/mL
Surface occupied by the melanin, % medium alone [5]: 208%
Surface occupied by the melanin, Average [5]: 40277.8 pixels
